According to ChEMBL document CHEMBL5500415, “Design of a Lead-Like Cysteine-Targeting Covalent Library and the Identification of Hits to Cys55 of Bfl-1” (J Med Chem, 2024):

What was measured:
Bcl-2-related protein A1 = target: T1, Bcl-2-related protein A1 (Homo sapiens, UniProt Q16548); test: Inhibition of human recombinant N-terminal his tagged Bfl-1 (1 to 151 residues) expressed in Escherichia coli BL21-Gold (DE3) cells using HyLite Fluor 647-labeled BIM peptide as substrate incubated for 120 mins by TR-FRET assay
T1 sequence (Q16548 whole entry): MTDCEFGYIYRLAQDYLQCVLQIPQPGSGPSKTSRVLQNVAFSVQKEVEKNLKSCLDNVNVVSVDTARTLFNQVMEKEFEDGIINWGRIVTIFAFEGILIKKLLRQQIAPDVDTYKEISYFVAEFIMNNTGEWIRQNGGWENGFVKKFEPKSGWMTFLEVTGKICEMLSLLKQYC

[1] = target: T2, Bcl-2-related protein A1 (Homo sapiens) (UniProt Q16548); test: Binding affinity to N-terminal His6-tagged recombinant human Bfl-1 (1 to 151 residues) expressed in Escherichia coli BL21-Gold (DE3) cells assessed as Kinact/ki incubated for 10 to 90 mins by MS analysis; conditions: time 10-90 min
T2 sequence (whole entry): T1 sequence (Q16548 whole entry)

[2] = Lipophilicity, logD of compound at pH 7.4 by shake-flask method; assay type: physicochemical; conditions: buffer
[3] = GSH reactivity assessed as half life at pH 7.4 incubated for 24 hrs by LC-UV-MS analysis; assay type: physicochemical; conditions: glutathione (GSH) solution

Row | Structure (SMILES) | IC50 (Bcl-2-related protein A1) [µM] | K [1] [M⁻¹ s⁻¹] | logD [2] | half-life [3] [h]
1 | C=CC(=O)N1CCC[C@@H]1c1ccccc1 | 480 | 0.7 | 1.7 | 13.7
2 | C=CC(=O)Nc1cc(CN2CCCC2)ccc1-c1ccc(OC)cc1C | 18 | 6.8 | – | –
3 | C=CC(=O)N1C[C@@H](Oc2cc(Cl)c(F)cc2C#N)[C@H]1CCC (racemic) | 10.4 | 9.5 | – | –
4 | C=CC(=O)N(C)[C@@H](c1ccc(Cl)cc1)C1CCOCC1 (racemic) | 90.9 | 0.8 | – | –

Now from value to compound:

Row | IC50 (Bcl-2-related protein A1) [µM] | K [1] [M⁻¹ s⁻¹] | logD [2] | half-life [3] [h] | Structure (SMILES)
5 | 16.8 | 5.5 | – | – | C=CC(=O)N(Cc1ccccc1OCC(N)=O)c1ccc(Cl)cc1
6 | 23.4 | 7.5 | – | – | C=CC(=O)N(Cc1ccc(OC)cc1)c1cccc(Cl)c1
